What all share (assay type): cell-based
In one assay the test system is human IL-2 signal. The assay can be described thus: Western blot of phosphorylation downstream of IL-2 in human PBMC / peripheral T cells. How it is done:
FIG. 9C presents IL-2 signal in human PBMC was blocked by BNZ132-1. Human PBMCs were prepared (Ficoll-paque), activated (by PHA) expanded (by IL-2), and purified by magnetic negative selection as described in the methodology section. After 24 h of IL-2 depletion, the PBMCs were stimulated by 1 nM IL-2 in the presence or absence of BNZ132-1 (0.5 or 0.1 μM) for 20 min before the cellular protein extraction. Phosphorylation of individual proteins was visualized by phosphor-specific antibodies (Cell Signaling), followed by ECL. Lanes: 1. no stimulation, 2. IL-2 stimulation, 3. IL-2+BNZ132-1 (high dose), 4. IL-2+BNZ132-1 (low dose). In all blots, anti-Vinculin antibody (Sigma) was used to validate nearly-equal protein loading.

For assay [1], the system named is IL-15 signaling (STAT5, PI3kinase-Akt, MAP-kinase branches). Kind of assay: Western blot of phosphorylation downstream of IL-15 in PT-18β cells. As to conditions: 1 nM human IL-15, 0.5 μM BNZ132-1. How it is done: FIG. 9A-FIG. 9C present comprehensive inhibition by BN132-1 of signaling events caused by target γc-cytokines. […] Cells have been fasted of IL-3 for 12 h and then stimulated with 1 nM human IL-15 (Peprotech) in the presence or absence of 0.5 μM BNZ132-1 for 15 min before extraction of cellular proteins. Phosphorylation of the relevant molecules were detected using antibodies against each phosphor-proteins (Cell Signaling), followed by the ECL technique (Thermo Scientific). Lanes: 1. no stimulation, 2. IL-15 (1 nM), 3. IL-15 (1 nM)+BNZ132-1 (0.5 μM).
Cellular proliferation often represents a combination of several independent signaling pathways, and inhibiting one signaling branch […] the proliferation. […] FIG. 9A-FIG. 9C show comprehensive inhibition of the signal transduction pathways downstream of IL-15/IL-15 receptor system in PT-18 cells by BNZ 132-1. PT-18β cells have been withdrawn of IL-15 for overnight to induce into proliferative quiescence (no-stimulation). To restimulate the cells, 1 nM of IL-15 was added in the presence or absence of BNZ132-1 (0.5 μM). After […], cell lysates were collected and phosphorylation of key mediators of major signaling branches were determined by western blotting.
Background: Immunoblotting shows a protein as a band on a membrane.

In another assay the test system is mouse IL-4. Kind of assay: PT-18 proliferation assay (WST-1), IL-4. Conditions: murine PT-18 cells, mouse IL-4, BNZ132-1 50 nM, 500 nM, 5 μM. As for the experimental part:
(§1) FIG. 6A-FIG. 6E presents inhibitory spectrum of BNZ132-1 over γc- and non-γc-cytokines. […] Neutralizing antibodies against each cytokine (R & D systems, 5 μg ml^−1) were included as controls. After 20 h, the cells were pulsed with WST-1 (Clontech) and OD450 of each well was measured after 6 h. A 19-mer scrambled peptide was used as a negative control at 5 μM. The experiments were conducted in triplicate (applies to all experiments in FIG. 6A-FIG. 6E). The result represents one of at least three independent experiments (applies to all experiments in FIG. 6A-FIG. 6E). […] In PT-18 proliferation assay, PT-18β or PT-18h21Rα cells were withdrawn of mouse IL-3 for 12 h before the experiment. Cells were then incubated with 1 nM of mouse IL-4, mouse IL-9, or mouse IL-21 in the presence or absence of the indicated doses (μM) of BNZ132-1. Neutralizing antibodies to each cytokine (5 μg ml^−1, except for anti-mouse IL-21 polyclonal antibody which was used at 15 μg ml−1) and a scrambled control peptide (5 μM) were included as negative controls. WST-1 assay was conducted as described above. […] In PT-18 h21Rα survival assay, PT-18h21Rα cells are described in the text. […] Both parental and hIL-21Rα positive PT-18 cells were washed and incubated without IL-3 for 12 h before the assay. […] The Y-axis represents the cpm (count per minute) values measured by a β-counter. […]
On the technique in general: Tetrazolium dyes change colour on reduction, which living cells bring about.

The next assay concerns human IL-7. The assay can be described thus: Human peripheral T-cell (PBMC) proliferation assay, IL-7. As to conditions: ex vivo human primary T cells, 10 nM human IL-7. As for the experimental part:
as §1

Entries after “also recorded” stand apart in the source; their conditions may differ. No end group written: not given here.

Regarding IKEFLQRFIHIVQSIINTS [BNZ132-1], in the assay with human IL-2 signal (human PBMC/peripheral T cells, 1 nM IL-2, BNZ132-1 0.5 or 0.1 μM, 20 min), the “inhibition of IL-2 signal (phosphorylation)” value is recorded as “comprehensively inhibited; also recorded: blocked”. Also, in the assay with human IL-2 signal (low dose BNZ132-1 (0.1 μM), IL-2, human peripheral T cells), the “differential inhibition of individual signaling pathways at suboptimal dose” value is “Akt and p38 are more sensitive than Jak3 and STAT5”. Besides, in assay [1], the “inhibition of IL-15 signaling (phosphorylation of key signaling molecules)” value was “comprehensively inhibited; also recorded: near-complete inhibition”. Also, the “inhibition of IL-4-induced proliferation of PT-18 cells” value with mouse IL-4 was “did not inhibit”. Besides, in the assay with human IL-7, the “inhibition of IL-7-induced proliferation of ex vivo human T cells” value is given as “not significantly inhibited; also recorded: no inhibition of IL-7”.

The record behind these values is patent US10854312B2, “Selective peptide antagonists” (BIONIZ, LLC, priority 2013, dated 2020).
